From patent US20080108677A1, “Thioxothiazolidinone Compounds For Use As Pharmaceuticals” (Karyon-CTT Ltd, priority 2004, published 2008)

How the values were obtained:
αM I domain = target: T1, αM I domain (Homo sapiens, UniProt P11215); experiment: Inhibition of antibody binding to immobilized αM I domain-GST fusion; conditions: for inhibition at 50 µM: read-out: inhibition of mAb LM2/1 binding
T1 construct: immobilizing 20 ng/well recombinant αM I domain-GST fusion in 96-well plates
Method: (§1) Inhibition of antibody binding to the integrins. The αM I domain or purified αMβ2 integrin (50 ng/well) were coated on microtiter wells followed by saturation of the wells with 1% BSA in PBS/0.05% Tween20. The DDGW peptide or the compounds at concentrations indicated were preincubated for 30 minutes with the integrin, followed by addition of the antibodies LM2/1, MEM170, OKM-10, IB4 or a control IgG at a 1 μg/ml final concentration. The antibodies LM2/1 and MEM170 recognize the αM integrin I domain, whereas the epitope for OKM-10 is located outside the αM I domain (Koivunen et al., 2001; Li et al., 1995; Stefanidakis et al., 2003). The antibodies were incubated for 45 minutes followed by detection of the bound antibodies with a peroxidase conjugated anti-mouse antibody.

αM I domain-GST fusion = target: T2, αM I domain-GST fusion (Homo sapiens, UniProt P11215); experiment: DDGW-phage binding competition assay; conditions: dilution series 10 μM to 150 nM; mean of three independent experiments; read-out: IC50 for the inhibition of DDGW-phage binding to the αM I domain
T2 construct: immobilizing 20 ng/well recombinant αM I domain-GST fusion in 96-well plates
Method: Screening of the compound library. A combinatorial library of 10 000 small molecules was purchased from ChemBridge (San Diego, Calif.). A competition assay with the DDGW peptide bearing phage was set up by immobilizing 20 ng/well recombinant αM I domain-GST fusion in 96-well plates (Michishita et al., 1993). The compounds were used in pools comprising eight compounds, each at a 5 μM concentration and DMSO at a 1.25% concentration. After preincubation of the compounds in the wells, DDGW phage was added (3×10^8 transducing units/well). As controls, soluble DDGW peptide and a control peptide, and an unrelevant phage were included in every plate. Phage binding was detected with an anti-phage antibody as described (Bjorklund et al., 2004). Pools with inhibitory activity were re-tested as single compounds. The DDGW-phage inhibiting activity of these hits at a 10 μM concentration is shown in supplementary data. To calculate the IC50 values for the compounds, dilution series from the DDGW peptide and compounds were made (10 μM to 150 nM) and DDGW phage binding was measured. No inhibitor (DMSO as a vehicle) was used as 100% binding after subtracting the background value obtained with an irrelevant control phage.

αM I domain / proMMP-9 = target: T3, αM I domain / proMMP-9 (Homo sapiens, UniProt P11215); experiment: proMMP-9 binding to the αM integrin I domain; conditions: 10 μM
T3 construct: Soluble αM integrin I domain-GST fusion (2.5 μg/ml) was added; made in house
Method: proMMP-9 and fibrinogen binding to the αM integrin I domain. […] The resulting MMP-9 with this mutation is structurally identical to the wild type protein (Rowsell et al., 2002). ProMMP-9-ΔHC-E^402Q, intact proMMP-9 or fibrinogen (100 ng/well) was coated on microtiter wells in TBS followed by saturation of the wells with 1% BSA in PBS/0.05% Tween20. Soluble αM integrin I domain-GST fusion (2.5 μg/ml) was added in the presence or absence of peptides or compounds in 0.1% BSA/TBS/0.05% Tween20/1 mM CaCl2/1 mM MgCl2, and incubated for one hour. In some experiments 10 mM CaCl2 or 10 mM MgCl2 were used instead of 1 mM CaCl2/1 mM MgCl2. Bound GST fusion was detected with anti-GST antibody (1:2000 dilution) and peroxidase-conjugated anti-goat antibody (1:2000 dilution).

αMβ2 integrin = αMβ2 integrin (Homo sapiens, UniProt P11215); experiment: Inhibition of antibody binding to purified αMβ2 integrin; conditions: 25 μM; epitope in β2 I-like domain
Method: as §1

αL I domain = target: T4, αL I domain (Homo sapiens, UniProt P20701); experiment: Antibody binding to αL I domain
T4 sequence (P20701 156-327 limits assumed): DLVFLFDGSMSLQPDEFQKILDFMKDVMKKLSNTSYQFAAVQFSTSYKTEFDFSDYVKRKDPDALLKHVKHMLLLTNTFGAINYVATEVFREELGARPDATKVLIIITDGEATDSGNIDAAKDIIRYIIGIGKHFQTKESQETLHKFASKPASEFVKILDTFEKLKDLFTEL

[1] = system: THP-1 monocytic leukemia cells; experiment: Cell viability/toxicity, THP-1; assay type: cell-based, Human; conditions: 48 h, serum-containing medium, 50 μM, data not shown
Method: (§2) Cell culture. Human monocytic leukemia THP-1, OCI-AML-3 acute myeloid leukemia and human HT1080 fibrosarcoma cells were cultured as described (Koivunen et al., 1999; Koivunen et al., 2001; Stefanidakis et al., 2003). The cell viability was measured using an 3-[4,5-dimethylthiazol-2-yl]-2,5-diphenyl tetrazolium bromide assay as described (Bjorklund et al., 2004).
(§3) We next evaluated the ability of DDGW peptide and the chemicals to compete with antibody binding to immobilized αM I domain-GST fusion. […] The epitope of this antibody is located in the β2 I-like domain (FIG. 4B). […] Before conducting cell-based experiments, we tested possible toxicity of the chemicals. The compounds were incubated with THP-1 monocytic leukemia and OCI-AML-3 acute myeloid leukemia cells for 48 h in serum-containing cell culture medium.

[2] = system: OCI-AML-3 acute myeloid leukemia cells; experiment: Cell viability/toxicity, OCI-AML-3; assay type: cell-based; conditions: 48 h, serum-containing medium, 50 μM, data not shown
Method: as §2, §3

THP-1 cells [3] = experiment: THP-1 adhesion to uncoated plastic; assay type: cell-based, Human; conditions: 20 nM PDBu; 25 μM compounds; overnight
Method: (§4) Cell adhesion and migration. Cell adhesion was performed as described (Koivunen et al., 2001). Briefly, THP-1 cells (50 000/well) were stimulated with 50 nM PDBu (4β-phorbol-12,13-dibutyrate, SigmaAldrich) and allowed to bind to the fibrinogen coated microtiter wells (10 μg/ml) in the presence or absence of compounds or DMSO in serum-free RPMI medium containing 0.1% BSA. Non-adherent cells were removed by gentle washing with PBS or 2.5 mM EDTA in PBS, and adherent cells were quantitated with a phosphatase assay (Koivunen et al., 2001). Alternatively, THP-1 cells were stimulated with 20 nM PDBu and allowed to adhere on uncoated plastic overnight. Nonadherent cells were removed by washing with PBS followed by six washes with 2.5 mM EDTA in PBS. Cell migration was done using transwells (5 μm pore size) coated with 40 μg/ml LLG-C4-GST or fibrinogen (Koivunen et al., 2001). THP-1 and OCI-AML-3 cells (50 000 cells/100 μl) were allowed to migrate overnight in 10% FBS/RPMI medium in the presence or absence of peptides or compounds and stimulating cell migration with 40 nM PDBu. Gelatinase-selective inhibitor I (InhI) at a 50 μM concentration (Calbiochem) was used to evaluate the level of gelatinase-dependent migration on fibrinogen. Migrated cells were stained with crystal violet and counted (Koivunen et al., 2001). […]

THP-1 cells [4] = experiment: THP-1 adhesion to fibrinogen; assay type: cell-based, Human
Method: as §4

THP-1 cells [5] = experiment: THP-1 transwell migration on LLG-C4-GST coating; assay type: cell-based, Human
Method: Cell adhesion and migration. Cell adhesion was performed as described (Koivunen et al., 2001). Briefly, THP-1 cells (50 000/well) were stimulated with 50 nM PDBu (4β-phorbol-12,13-dibutyrate, SigmaAldrich) and allowed to bind to the fibrinogen coated microtiter wells (10 μg/ml) in the presence or absence of compounds or DMSO in serum-free RPMI medium containing 0.1% BSA. Non-adherent cells were removed by gentle washing with PBS or 2.5 mM EDTA in PBS, and adherent cells were quantitated with a phosphatase assay (Koivunen et al., 2001). Alternatively, THP-1 cells were stimulated with 20 nM PDBu and allowed to adhere on uncoated plastic overnight. Nonadherent cells were removed by washing with PBS followed by six washes with 2.5 mM EDTA in PBS. Cell migration was done using transwells (5 μm pore size) coated with 40 μg/ml LLG-C4-GST or fibrinogen (Koivunen et al., 2001). THP-1 and OCI-AML-3 cells (50 000 cells/100 μl) were allowed to migrate overnight in 10% FBS/RPMI medium in the presence or absence of peptides or compounds and stimulating cell migration with 40 nM PDBu. Gelatinase-selective inhibitor I (InhI) at a 50 μM concentration (Calbiochem) was used to evaluate the level of gelatinase-dependent migration on fibrinogen. Migrated cells were stained with crystal violet and counted (Koivunen et al., 2001). Migration of HT1080 cells on serum coated transwells was conducted as described (Koivunen et al., 1999).

THP-1 cells [6] = experiment: THP-1 transwell migration on fibrinogen; assay type: cell-based, Human; conditions: 25 μM, 40 nM PDBu
Method: as §4

OCI-AML-3 cells [7] = experiment: OCI-AML-3 transwell migration on fibrinogen; assay type: cell-based; conditions: 25 μM, 40 nM PDBu
Method: as §4

[8] = system: HT1080 fibrosarcoma cells; experiment: HT1080 migration on serum coated transwells; assay type: cell-based, human
Method: as §4

OCI-AML-3 cells [9] = experiment: Pericellular gelatinase-dependent uPAR cleavage; assay type: cell-based; conditions: 20 μM; PDBu stimulated; 48 hours
Method: Cellular cleavage of the urokinase-plasminogen activator receptor. Pericellular gelatinase-dependent uPAR cleavage was performed as described (Bjorklund et al., 2004). Briefly, OCI-AML-3 cells were stimulated with PDBu or left untreated and cultured for 48 hours in the presence of 20 μM IMB-10, the gelatinase-selective inhibitor (InhI) or vehicle (DMSO). uPAR and the cleaved form of uPAR D2+3 was detected with western blotting using a polyclonal antibody to uPAR (399R, American Diagnostica).

[10] = system: leukocytes emigrated into the peritoneum; experiment: Thioglycollate-induced peritonitis, leukocyte emigration in vivo; design: species or system mice; conditions: i.v.
Method: Neutrophil emigration in vivo. The mouse experiments were approved by the ethical committee for the animal experiments at the University of Helsinki. Inflammation was induced in BALB/cOlaHsd female maintained in the Viikki Laboratory Animal Centre by injecting 1 ml 4% thioglycollate broth in PBS i.p. followed by intravenous injections of chemicals (200 μl at a 20, 5 or 1 μg/ml concentration) or PBS after five minutes. Cells emigrated in the peritoneum after 3 or 24 h were counted using a hemocytometer. Statistical significance between groups in the peritonitis model was calculated with one-way ANOVA and found differences were analyzed by Bonferroni pairwise multiple comparison tests. Results with p<0.01 were deemed significant.

Question: For `CC[C@H](C)C(=O)O[C@H]1C[C@@H](C)C=C2C=C[C@H](C)[C@H](CC[C@@H]3C[C@@H](O)CC(=O)O3)[C@H]21` [lovastatin, reference compound], which “effect on antibody binding” value (αM I domain; DDGW peptide 100 μM, chemical competitors 50 μM) is on record?
Answer: only a marginal effect

Question: How did the IC50 (αM I domain-GST fusion) turn out when `Cc1ccccc1N1C(=O)/C(=C/C=C/c2ccccc2)SC1=S` [IMB-10, (5Z)-5((E)-3-phenylallylidene)-2-thioxo-3-o-tolylthiazolidin-4-one] was run?
Answer: 400 ± 200 nM

Question: What about the “αM I domain binding to proMMP-9-E402Q-ΔHC” value (αM I domain / proMMP-9; 10 mM Ca2+) of the same molecule?
Answer: nearly completely antagonized

Question: And the “αM I domain binding to proMMP-9-E402Q-ΔHC” value (αM I domain / proMMP-9; 10 mM Mg2+)?
Answer: strong binding

Question: What about the “αM I domain binding to proMMP-9-E402Q-ΔHC” value (αM I domain / proMMP-9; equimolar Ca2+ and Mg2+) of the same molecule?
Answer: intermediate

Question: And the inhibition at 50 µM (αM I domain)?
Answer: 75%

Question: What about the “inhibition of mAb IB4 binding to purified αMβ2” value (αMβ2 integrin) of the same molecule?
Answer: inhibited

Question: What about the “binding of TS1/22 and MEM83 antibodies to αL I domain” value (αL I domain) of the same molecule?
Answer: similarly affected

Question: What about the “toxicity / effect on cell proliferation” value [1] of the same molecule?
Answer: no significant effect

Question: And the “toxicity / effect on cell proliferation” value [2]?
Answer: no significant effect

Question: What about the “adhesion to plastic after washing with 2.5 mM EDTA” value (THP-1 cells [3]) of the same molecule?
Answer: resisted detachment and remained adherent

Question: And the “adhesion to fibrinogen after washings with EDTA” value (THP-1 cells [4]; 50 nM PDBu, 25 μM, 2.5 mM EDTA)?
Answer: more resistant

Question: And the “cell adhesion in the absence of phorbol ester activation” value (THP-1 cells [4]; no phorbol ester, data not shown)?
Answer: did not increase cell adhesion

Question: What about the “inhibition of cell migration on LLG-C4-GST” value (from here on “inhibition of cell migration”) (THP-1 cells [5]; 25 μM) of the same molecule?
Answer: potently inhibited cell migration

Question: What about the “inhibition of migration on fibrinogen-coated transwells” value (“inhibition of migration” for short) (THP-1 cells [6]) of the same molecule?
Answer: completely inhibited migration

Question: And the “inhibition of migration” value (OCI-AML-3 cells [7])?
Answer: completely inhibited migration

Question: What about the “β2 integrin-independent migration of HT1080 cells” value [8] of the same molecule?
Answer: no effect

Question: What about the “inhibition of uPAR cleavage (uPAR D2+3 form)” value (OCI-AML-3 cells [9]) of the same molecule?
Answer: could not be inhibited

Question: And the “number of leukocytes emigrated into the peritoneum” value ([10]; after 24 hours)?
Answer: still low

Question: And the “number of leukocytes emigrated into the peritoneum” value ([10]; three hours after induction)?
Answer: dose-dependent decrease

Question: Which inhibition at 50 µM (αM I domain) does the source give for `O=C1/C(=C/c2ccc(-c3cccc([N+](=O)[O-])c3)o2)SC(=S)N1Cc1ccccc1` [IMB-6, (Z)-3-benzyl-5-((5-(3-nitrophenyl)furan-2-yl)methylene)-2-thioxothiazolidin-4-one] here?
Answer: 75%

Question: And the “toxicity / effect on cell proliferation” value [1]?
Answer: toxic

Question: And the “toxicity / effect on cell proliferation” value [2]?
Answer: toxic

Question: `CCN1C(=O)/C(=C\c2ccc(OCCCOc3cc(C)cc(C)c3)c(OC)c2)SC1=S` [IMB-2, (E)-5-(4-(3-(3,5-dimethylphenoxy)propoxy)-3-methoxybenzylidene)-3-ethyl-2-thioxothiazolidin-4-one] was tested. Which “toxicity / effect on cell proliferation” value [1] did it give?
Answer: no significant effect

Question: And the “toxicity / effect on cell proliferation” value [2]?
Answer: no significant effect

Question: And the “inhibition of cell migration” value (THP-1 cells [5]; 25 μM)?
Answer: did not siginificantly inhibit cell migration

Question: And the “inhibition of cell migration” value (THP-1 cells [5]; 100 μM, not shown)?
Answer: became inhibitory

Question: What about the “inhibition of migration” value (THP-1 cells [6]) of the same molecule?
Answer: less active

Question: What about the “inhibition of migration” value (OCI-AML-3 cells [7]) of the same molecule?
Answer: less active
